Data reported in publication PMC7047876, “Potent Chimeric Antimicrobial Derivatives of the Medicago truncatula NCR247 Symbiotic Peptide” (Frontiers in Microbiology, 2020).
In brackets after ≈: the same amount, converted by molar mass. Peptide text beside a SMILES is read from it.

Assays:
Assay type in all cases: cell-based
[1] = system: Acinetobacter baumannii (ATCC 17978); assay: microbe, parasite or virus in culture; settings: 3 h treatment in PPB (20 mM potassium-phosphate buffer, pH 7.4), 37°C, then plating on LB agar; read-out: Minimal bactericidal concentration (MBC) A. b.
From the text: (§1) The pathogenic bacterial strains obtained from the ATCC (United States) and NCTC (National Collection of Type Cultures – England) were the Gram-positive: Enterococcus faecalis (ATCC 29212), Staphylococcus aureus (HNCMO112011), Listeria monocytogenes (ATCC 19111) and the Gram-negative: Pseudomonas aeruginosa (ATCC 27853), Escherichia coli (ATCC 8739), Salmonella enterica (ATCC 13076), Klebsiella pneumoniae (NCTC 13440), Acinetobacter baumannii (ATCC 17978).
(§2) Overnight bacterial cultures grown in LB were diluted and grown to OD600 = 0.2–0.6 at 37°C with shaking. After harvesting and washing bacteria in PPB, the suspensions were adjusted to OD600 = 0.1 corresponding to ∼10^7 bacteria/mL. Antimicrobial activity of the peptides and the antibiotics was determined in PPB in 96 well microplates using 10 μL bacterial suspension and 90 μL of the 2-fold serial dilutions of peptides or antibiotics. Peptides were tested from 25 μM to 0.125 μM whereas the antibiotics; carbenicillin (Cb) from Duchefa Biochemie (Prod.No. C0109.0025) and levofloxacin (Lvx) from Sigma-Aldrich (Prod.No. 28266-10MG-F) from […] to 0.1 μM. The microplates were incubated for 3 h at 37°C with 250 rpm shaking and then 5 μl from each sample was placed on LB agar and the growth of bacteria was monitored after overnight incubation at 37°C. The lowest concentration of the antimicrobial agents, which completely eliminated viable bacteria was the minimal bactericidal concentration (MBC).

[2] = system: Escherichia coli (ATCC 8739); assay: microbe, parasite or virus in culture; settings: 3 h treatment in PPB (20 mM potassium-phosphate buffer, pH 7.4), 37°C, then plating on LB agar; read-out: Minimal bactericidal concentration (MBC) E. c.
From the text: as §1, §2

[3] = system: Enterococcus faecalis (ATCC 29212); assay: microbe, parasite or virus in culture; settings: 3 h treatment in PPB (20 mM potassium-phosphate buffer, pH 7.4), 37°C, then plating on LB agar; read-out: Minimal bactericidal concentration (MBC) E. f.
From the text: as §1, §2

[4] = system: Staphylococcus aureus (HNCMO112011); assay: microbe, parasite or virus in culture; settings: 3 h treatment in PPB (20 mM potassium-phosphate buffer, pH 7.4), 37°C, then plating on LB agar; read-out: Minimal bactericidal concentration (MBC) S. a.
From the text: as §1, §2

[5] = system: Salmonella enterica (ATCC 13076); assay: microbe, parasite or virus in culture; settings: 3 h treatment in PPB (20 mM potassium-phosphate buffer, pH 7.4), 37°C, then plating on LB agar; read-out: Minimal bactericidal concentration (MBC) S. e.
From the text: as §1, §2

[6] = system: Pseudomonas aeruginosa (ATCC 27853); assay: microbe, parasite or virus in culture; settings: 3 h treatment in PPB (20 mM potassium-phosphate buffer, pH 7.4), 37°C, then plating on LB agar; read-out: Minimal bactericidal concentration (MBC) P. a.
From the text: as §1, §2

[7] = system: Listeria monocytogenes (ATCC 19111); assay: microbe, parasite or virus in culture; settings: 3 h treatment in PPB (20 mM potassium-phosphate buffer, pH 7.4), 37°C, then plating on LB agar; read-out: Minimal bactericidal concentration (MBC) L. m.
From the text: as §1, §2

[8] = system: Klebsiella pneumoniae (NCTC 13440); assay: microbe, parasite or virus in culture; settings: 3 h treatment in PPB (20 mM potassium-phosphate buffer, pH 7.4), 37°C, then plating on LB agar; read-out: Minimal bactericidal concentration (MBC) K. p.
From the text: as §1, §2

Escherichia coli = settings: MHB; for MBC in Mueller Hinton Broth, panel (A), E. c.: 3 h treatment; for MBC in Mueller Hinton Broth, panel (A), E. c. / MBC in Mueller Hinton Broth, panel (B), E. c.: 37°C (panel assigned); for MIC in Mueller Hinton Broth, panel (C), E. c.: 20 h cultivation, 37°C, optical density (panel assigned); for MBC in Mueller Hinton Broth, panel (B), E. c.: 20 h treatment
From the text: as §1
(§3) Ca^2+ and Mg^2+ can inhibit the antimicrobial activity of cationic peptides, therefore the MBC and MIC values were also determined in MHB, which unlike PPB contains divalent cations and allows growth of bacteria. Bacteria were grown and prepared similarly except that bacteria were resuspended in MHB. 10 μl of bacteria OD600 = 0.1, supplemented with 45 μl MHB and 45 μl of 2-fold dilution series of peptides, were cultivated for 3 and 20 h at 37°C with shaking. Optical density of each sample was measured (Hidex Sense Microplate Reader with Plate Reader Software version 5064) and 5 μl was placed on LB agar plates after 3 and 20 h treatment. The minimal inhibitory concentration (MIC) corresponded to the lowest concentration, which inhibited growth.

Acinetobacter baumannii = settings: MHB; for MBC in Mueller Hinton Broth, panel (A), A. b.: 3 h treatment; for MBC in Mueller Hinton Broth, panel (A), A. b. / MBC in Mueller Hinton Broth, panel (B), A. b.: 37°C (panel assigned); for MIC in Mueller Hinton Broth, panel (C), A. b.: 20 h cultivation, 37°C, optical density (panel assigned); for MBC in Mueller Hinton Broth, panel (B), A. b.: 20 h treatment
From the text: as §1, §3

Staphylococcus aureus = settings: MHB; for MBC in Mueller Hinton Broth, panel (A), S. a.: 3 h treatment; for MBC in Mueller Hinton Broth, panel (A), S. a. / MBC in Mueller Hinton Broth, panel (B), S. a.: 37°C (panel assigned); for MIC in Mueller Hinton Broth, panel (C), S. a.: 20 h cultivation, 37°C, optical density (panel assigned); for MBC in Mueller Hinton Broth, panel (B), S. a.: 20 h treatment
From the text: as §1, §3

`CC[C@H](C)[C@H](NC(=O)[C@H](CCCCN)NC(=O)[C@H](CCCCN)NC(=O)[C@H](C)NC(=O)[C@H](CC(C)C)NC(=O)[C@H](C)NC(=O)[C@H](C)NC(=O)[C@H](CC(C)C)NC(=O)[C@H](C)NC(=O)[C@@H](N)CCCCN)C(=O)N[C@@H](CC(C)C)C(N)=O` [I, X2] (H-KALAALAKKIL-NH2) gave an MBC [1] of 25 µM (≈ 28.5 µg/mL), an MBC [2] of over 25 µM and an MBC [3] of over 25 µM. It also gave an MBC [4] of 25 µM (≈ 28.5 µg/mL), an MBC [5] of over 25 µM and an MBC [6] of 6.3 µM (≈ 7.17 µg/mL). The MBC [7] was 25 µM (≈ 28.5 µg/mL), the MBC [8] was over 25 µM and the “MBC in Mueller Hinton Broth, panel (A), E. c.” value (Escherichia coli) was over 25 µM. For the same molecule, the “MIC in Mueller Hinton Broth, panel (C), E. c.” value (Escherichia coli) was over 25 µM, the “MBC in Mueller Hinton Broth, panel (B), E. c.” value (Escherichia coli) was over 25 µM and the “MBC in Mueller Hinton Broth, panel (A), A. b.” value (Acinetobacter baumannii) was over 25 µM. The “MIC in Mueller Hinton Broth, panel (C), A. b.” value (Acinetobacter baumannii) was 25 µM (≈ 28.5 µg/mL), the “MBC in Mueller Hinton Broth, panel (B), A. b.” value (Acinetobacter baumannii) was over 25 µM and the “MBC in Mueller Hinton Broth, panel (A), S. a.” value (Staphylococcus aureus) was over 25 µM. For the same molecule, the “MIC in Mueller Hinton Broth, panel (C), S. a.” value (Staphylococcus aureus) was over 25 µM and the “MBC in Mueller Hinton Broth, panel (B), S. a.” value (Staphylococcus aureus) was over 25 µM.

For `CC[C@H](C)[C@H](NC(=O)[C@H](CCCCN)NC(=O)[C@H](CCCCN)NC(=O)[C@H](C)NC(=O)[C@H](CC(C)C)NC(=O)[C@H](C)NC(=O)[C@H](C)NC(=O)[C@H](CC(C)C)NC(=O)[C@H](C)NC(=O)[C@H](CCCCN)NC(=O)[C@H](CC(C)C)NC(=O)[C@H](CC(N)=O)NC(=O)[C@@H](NC(=O)[C@H](CCCCN)NC(=O)CNC(=O)[C@H](CC(C)C)NC(=O)[C@H](CC(C)C)NC(=O)[C@H](Cc1ccc(O)cc1)NC(=O)CNC(=O)[C@H](C)NC(=O)[C@H](CO)NC(=O)[C@H](CC(N)=O)NC(=O)[C@H](CC(C)C)NC(=O)[C@@H](NC(=O)[C@H](Cc1c[nH]c2ccccc12)NC(=O)CN)[C@@H](C)O)[C@@H](C)CC)C(=O)N[C@@H](CC(C)C)C(N)=O` [J, Transportan, reference compound], the MBC [1] was 1.6 µM (≈ 4.54 µg/mL), the MBC [2] was 3.1 µM (≈ 8.81 µg/mL) and the MBC [3] was 3.1 µM (≈ 8.81 µg/mL). It also gave an MBC [4] of 3.1 µM (≈ 8.81 µg/mL), an MBC [5] of 1.6 µM (≈ 4.54 µg/mL) and an MBC [6] of 3.1 µM (≈ 8.81 µg/mL). For the same molecule, the MBC [7] was 3.1 µM (≈ 8.81 µg/mL), the MBC [8] was 3.1 µM (≈ 8.81 µg/mL) and the “MBC in Mueller Hinton Broth, panel (A), E. c.” value (Escherichia coli) was 6.3 µM (≈ 17.9 µg/mL). The “MIC in Mueller Hinton Broth, panel (C), E. c.” value (Escherichia coli) was 3.1 µM (≈ 8.81 µg/mL), the “MBC in Mueller Hinton Broth, panel (B), E. c.” value (Escherichia coli) was 6.3 µM (≈ 17.9 µg/mL) and the “MBC in Mueller Hinton Broth, panel (A), A. b.” value (Acinetobacter baumannii) was 3.1 µM (≈ 8.81 µg/mL). The “MIC in Mueller Hinton Broth, panel (C), A. b.” value (Acinetobacter baumannii) was 3.1 µM (≈ 8.81 µg/mL), the “MBC in Mueller Hinton Broth, panel (B), A. b.” value (Acinetobacter baumannii) was 3.1 µM (≈ 8.81 µg/mL) and the “MBC in Mueller Hinton Broth, panel (A), S. a.” value (Staphylococcus aureus) was 6.3 µM (≈ 17.9 µg/mL). For the same molecule, the “MIC in Mueller Hinton Broth, panel (C), S. a.” value (Staphylococcus aureus) was 3.1 µM (≈ 8.81 µg/mL) and the “MBC in Mueller Hinton Broth, panel (B), S. a.” value (Staphylococcus aureus) was 3.1 µM (≈ 8.81 µg/mL).
